In paper PMC8080595, “Discovery of a novel RORγ antagonist with skin-restricted exposure for topical treatment of mild to moderate psoriasis” (Scientific Reports, 2021):
Read-outs that look alike come from different tables or passages of the source. Blank lines part the entries; values can stand above or below the compound they belong to.

Columns and labels:
Oral PK in SD rats = assay type: in vivo; details: male, rat, plasma; for AUC: read-out: Exposure in SD Rat, AUC; for Cmax: read-out: Exposure in SD Rat, Cmax; for half-life: read-out: Exposure in SD Rat, t1/2 (converted)
Protocol: Compounds were dissolved in 5% DMSO, 5% tween 80 and then added 90% saline. Male SD rats were dosed with the compound via oral (2 mg/kg or 5 mg/kg) routes, respectively after fasting overnight. Blood of the animals were collected at indicated time post dosing. Blood samples were then prepared for plasma and analyzed for the compounds using validated LC/MS assays. The experimental protocol used in this study was approved by IACUC. The experiments were conducted in accordance with the Guiding Principles for the Care and Use of Laboratory Animals and complied with the ARRIVE guidelines.

[1] = Liver microsomal stability, rat; assay type: in vitro ADME; details: liver microsomes, pH 7.4, read-out: Liver microsomal stability, t1/2, Rat
Protocol: (§1) The compound was mixed with 0.5 mg/ml human liver microsome (Thermal Fisher) at a final concentration of 1 µM in 100 mM potassium phosphate buffer, pH 7.4. The reactions were initiated by the addition of 1 mM NADPH. Samples in duplicate were incubated at 37 °C with mixing. 100 µL aliquots were transferred after 0, 5, 10, 30, 45, 60 minutes to a new tube with 300 µL acetonitrile, incubated on ice for 30 minutes, centrifuged at 1800×g at 4 °C for 10 minutes. The supernatants were transferred to glass vials subjected to LC/MS analysis. Peak areas were measured to calculate half-life according to the formula t1/2 = − 0.693/slope of linear regression analysis of ln [concentration] versus incubation time. Similar methods were applied to access mouse and rat liver microsomal stability of the compounds.

[2] = Liver microsomal stability, human; assay type: in vitro ADME; details: pH 7.4
Protocol: as §1

RORγ LBD = molecular target: T1, RORγ LBD (Homo sapiens, UniProt P51449); assay: LanthaScreen TR-FRET human RORγ coactivator assay; assay type: biochemical; details: antagonist mode, read-out: Binding of RORγ LBD, IC50
T1 construct: The assay was performed with GST-tag RORγ LBD (25 ng/reaction, Creative Biomart); purchased Creative Biomart
T1 sequence (P51449 269-508 limits assumed): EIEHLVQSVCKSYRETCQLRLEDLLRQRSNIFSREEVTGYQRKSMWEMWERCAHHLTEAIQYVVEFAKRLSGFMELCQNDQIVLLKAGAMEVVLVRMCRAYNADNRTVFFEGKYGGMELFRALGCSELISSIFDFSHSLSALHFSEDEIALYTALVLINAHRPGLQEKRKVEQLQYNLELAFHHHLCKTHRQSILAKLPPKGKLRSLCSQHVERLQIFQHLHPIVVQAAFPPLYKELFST
Description: In LanthaScreen TR-FRET RORγ coactivator assay, the RORγ LBD was constitutively active and the coactivator peptide (fluorescein-D22) was recruited in the absence of ligand, or compound (Fig. 2a). The binding of an antagonist to RORγ LBD causes a conformational change of the receptor, leading to a decrease in the affinity of the receptor for the coactivator peptide. The separation of the fluorescently labeled coactivator peptide from RORγ LBD from the receptor with the terbium-labeled antibody causes a decrease in the TR-FRET signal compared to those without compound. The assay was validated by detecting the ligand-independent recruitment of coactivator peptide in the presence or absence of RORγ LBD (2.5- to 3-fold assay window). Effects of the key compounds of the novel chemotype in Fig. 1, were tested in LanthaScreen TR-FRET RORγ coactivator assay.
The assay was performed with GST-tag RORγ LBD (25 ng/reaction, Creative Biomart), 0.6 μM Fluorescein-D22 coactivator peptide and 8 nM Tb anti-GST antibody (Invitrogen) at room temperature for 60 minutes. The fluorescent signals were measured with 520 nm emission and 495 nm excitation on Tecan Infinite. The data were calculated using DMSO control as 0% inhibition and non-protein control as 100% inhibition. IC50 values were calculated using non-linear regression analysis of GraphPad Prism in all assays.

[3] = test system: IL-17 secretion from human PBMCs; assay: Human IL-17 production assay using human PBMC; assay type: cell-based; details: cytostim stimulation 72 h
Protocol: To confirm cellular on-target effects, we investigated the inhibition of selected RORγ antagonists on RORγ-regulated IL-17 secretion using human PBMC. Human IL-17-producing cells were readily formed following cytostim stimulation. In human PBMC stimulated with cytostim for 72 h, differentiation of Th17 cells was confirmed by increased secretion of IL-17 (291 pg/mL) in cell culture supernatant compared to basal level of IL-17 (20 pg/mL IL-17 without cytostim stimulation), […] of IL-17 secretion.
Human PBMCs (Zenbio) in TexMACS media were stimulated by cytostim (Miltenyi) for 72 h following the vendor's instruction. Human IL-17A in cell culture supernatant was measured using AlphaLISA human IL-17A Biotin-free detection kit (Perkin Elmer) according to the manufacturer’s protocol.

[4] = Liver microsomal stability, mouse; assay type: in vitro ADME; details: liver microsomes, pH 7.4, read-out: Liver microsomal stability, t1/2, Mouse
Protocol: as §1

[5] = test system: IMQ-induced mouse psoriasis-like inflammation model; parameters: method as in PMID 26870941; details: 1% GSK2981278 ointment vs placebo + IMQ control; cited from earlier work
psoriasis [6] = test system: psoriasis; parameters: method as in PMID 29150844; details: ointment 0.03%, 0.1%, 0.8% and 4%, all doses; cited from earlier work
psoriasis [7] = test system: psoriasis; parameters: method as in PMID 27852111; details: oral, phase 2a, cited from earlier work
[8] = human, liver microsomes, 1 µM compound, 0.5 mg/ml microsome, NADPH, 37 °C, read-out: Liver microsomal stability, t1/2, Human

AUC (Oral PK in SD rats; 5 mg/kg oral): 6980 ng·h/mL
Cmax (Oral PK in SD rats; 5 mg/kg oral): 446 ng/mL
half-life (Oral PK in SD rats; 5 mg/kg oral): 768 min
half-life at 1 µM [1]: > 120 min
half-life at 1 µM [2, 8]: > 120 min
IC50 (RORγ LBD): 62 ± 18 nM
Structure (SMILES): CCS(=O)(=O)c1ccc(Cc2nc3c(Cl)c(-c4ccccc4OC(F)(F)F)c(Cl)cc3[nH]2)c(Cl)c1 [Compound 1, 4,6-dichloro-2-(2-chloro-4-(ethylsulfonyl)benzyl)-5-(2-(trifluoromethoxy)phenyl)-1H-benzo[d]imidazole]
EC50 [3]: 30 ± 10 nM

AUC (Oral PK in SD rats; 2 mg/kg oral): 352 ng·h/mL
Cmax (Oral PK in SD rats; 2 mg/kg oral): 70 ng/mL
half-life (Oral PK in SD rats; 2 mg/kg oral): 120 min
half-life at 1 µM [4]: 7.8 min
half-life at 1 µM [1]: 34.5 min
half-life at 1 µM [2, 8]: 18.5 min
half-life at 1 µM ([2]; range across human, rat and mouse liver microsomes, read-out: t1/2 in human, rat and mouse liver microsome stability assays): 7.8 to 34.5 min
IC50 (RORγ LBD): 40 ± 27 nM
Structure (SMILES): CCS(=O)(=O)c1ccc(Cc2nc3c(Cl)c(N4CCC(F)(F)CC4)c(Cl)cc3[nH]2)cc1 [Compound 2, 4,6-dichloro-5-(4,4-difluoropiperidin-1-yl)-2-(4-(ethylsulfonyl)benzyl)-1H-benzo[d]imidazole]
EC50 [3]: 46 ± 2 nM

Structure (SMILES): CCc1ccc(N(CC(C)C)S(=O)(=O)c2ccc(OCC3CCOCC3)c(CO)c2)cc1 [GSK2981278]
reduction of epithermal thickness [5]: 23%
Infiltrate thickness (psoriasis [6]): not changed

Structure (SMILES): CCS(=O)(=O)c1ccc(CNC(=O)c2cnc3c(c2)CN(C[C@H]2CC[C@H](C(F)(F)F)CC2)[C@H]3C(C)C)nc1 [VTP43742]
efficacy in psoriatic patients (psoriasis [7]; four-week period): clear signal of efficacy
transaminase (psoriasis [7]): elevations of reversible transaminase
